Results from article PMC7866009, “Evaluation of Nanotargeted ^111In-Cyclic RGDfK-Liposome in a Human Melanoma Xenotransplantation Model” (International Journal of Molecular Sciences, 2021).
Non-standard residues stand in square brackets, D forms with d.

What was measured:
[1] = tested on: αVβ3 integrin-mediated adhesion of A375.S2 cells; assay: CytoSelect cell adhesion assay of A375.S2 cells on extracellular matrix proteins; format: cell-based, human; conditions: 100 nM; cells adhere to coated plate at 37 °C (1 h in legend, 90 min in method); crystal violet OD 560 nm; five experiments
Experimental: Next, we tested the effect of the cyclic RGDfK-liposome on the αVβ3 integrin -mediated cellular adhesion using human malignant melanoma A375.S2 cells on recombinant extracellular matrix proteins.
Figure 1 Evaluating the effect of the cyclic RGDfK-liposome on αVβ3 integrin-mediated cell adhesion. […] A375.S2 cells was pretreated with 100 nM cRGDfV, cRGDfK, cRGDfK-PEG2000-DSPE or the cRGDfK-liposome and allowed to adhere to a coating of fibronectin, collagenI or collagen IV for 1 h at 37 °C before washing and detection of cell adhesion (B) or followed by staining with FITC-labeled mouse anti-human CD51/CD61 monoclonal antibody (C). […] These experiments were performed for five times.
Adhesion assay were performed with CytoSelect TM Cell Adhesion Assay Kit. Principle, A375.S2 cells (1 × 10^6/well) in working solution (serum-free MEM medium, 1mM Mn^2+, and 0.5% bovine serum albumin) were allowed to adhere to extracellular matrix proteins-coated plate for 90 min at 37 °C. Cells were analyzed for binding in the presence or absence of test subjects. Non-adherent cells were removed by a flick wash. The adherent cells were stained with crystal violet and examined the optical density at λmax 560 nm.

integrin αVβ3 = conditions: cited from earlier work
Text: The arginin-glycine-aspatic acid (RGD) sequence is the cell attachment site of a large number of adhesive extracellular matrix, blood, and cell surface proteins, and nearly half of the over 20 known integrins recognize this sequence in their adhesion protein ligands. The integrin-binding selective activity to only one or a few of the RGD-directed integrins can be designed by cyclizing peptides with selected sequences around the RGD.

[2] = molecular target: αVβ3 integrin (human (endogenous in A375.S2)) (UniProt P06756)
[3] = molecular target: αVβ3 integrin (human (endogenous in A375.S2)) (UniProt P06756); remark: listed apart in the source

Chain of UniProt P06756 (P06756 31-1048, chain 1 of 2): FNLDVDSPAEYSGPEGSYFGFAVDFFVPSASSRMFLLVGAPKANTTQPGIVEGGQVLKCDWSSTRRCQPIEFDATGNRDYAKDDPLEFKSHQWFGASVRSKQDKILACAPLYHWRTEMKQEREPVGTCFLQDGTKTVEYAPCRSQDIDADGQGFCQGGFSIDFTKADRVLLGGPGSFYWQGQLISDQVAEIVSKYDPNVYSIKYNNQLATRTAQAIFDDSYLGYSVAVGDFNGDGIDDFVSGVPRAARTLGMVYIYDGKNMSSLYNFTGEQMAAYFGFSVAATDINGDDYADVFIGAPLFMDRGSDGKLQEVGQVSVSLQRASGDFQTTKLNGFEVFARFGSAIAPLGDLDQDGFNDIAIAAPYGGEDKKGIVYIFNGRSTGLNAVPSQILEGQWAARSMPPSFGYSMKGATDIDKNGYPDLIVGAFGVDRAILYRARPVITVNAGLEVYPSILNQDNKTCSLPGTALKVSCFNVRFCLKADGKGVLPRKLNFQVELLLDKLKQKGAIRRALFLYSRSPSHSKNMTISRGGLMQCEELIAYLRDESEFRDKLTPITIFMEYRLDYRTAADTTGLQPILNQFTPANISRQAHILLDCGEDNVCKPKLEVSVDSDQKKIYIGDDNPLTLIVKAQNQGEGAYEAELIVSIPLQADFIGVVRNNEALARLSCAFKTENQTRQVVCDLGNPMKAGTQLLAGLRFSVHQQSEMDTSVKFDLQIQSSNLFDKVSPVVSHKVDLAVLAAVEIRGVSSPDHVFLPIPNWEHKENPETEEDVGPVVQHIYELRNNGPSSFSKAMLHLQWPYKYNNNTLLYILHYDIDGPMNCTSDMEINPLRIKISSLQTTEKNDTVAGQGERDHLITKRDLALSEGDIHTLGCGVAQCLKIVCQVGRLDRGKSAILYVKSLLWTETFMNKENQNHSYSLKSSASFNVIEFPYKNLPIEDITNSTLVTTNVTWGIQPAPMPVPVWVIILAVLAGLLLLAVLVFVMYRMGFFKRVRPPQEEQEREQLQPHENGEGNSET
Chain of UniProt P06756 (P05106 27-788, chain 2 of 2, further chain): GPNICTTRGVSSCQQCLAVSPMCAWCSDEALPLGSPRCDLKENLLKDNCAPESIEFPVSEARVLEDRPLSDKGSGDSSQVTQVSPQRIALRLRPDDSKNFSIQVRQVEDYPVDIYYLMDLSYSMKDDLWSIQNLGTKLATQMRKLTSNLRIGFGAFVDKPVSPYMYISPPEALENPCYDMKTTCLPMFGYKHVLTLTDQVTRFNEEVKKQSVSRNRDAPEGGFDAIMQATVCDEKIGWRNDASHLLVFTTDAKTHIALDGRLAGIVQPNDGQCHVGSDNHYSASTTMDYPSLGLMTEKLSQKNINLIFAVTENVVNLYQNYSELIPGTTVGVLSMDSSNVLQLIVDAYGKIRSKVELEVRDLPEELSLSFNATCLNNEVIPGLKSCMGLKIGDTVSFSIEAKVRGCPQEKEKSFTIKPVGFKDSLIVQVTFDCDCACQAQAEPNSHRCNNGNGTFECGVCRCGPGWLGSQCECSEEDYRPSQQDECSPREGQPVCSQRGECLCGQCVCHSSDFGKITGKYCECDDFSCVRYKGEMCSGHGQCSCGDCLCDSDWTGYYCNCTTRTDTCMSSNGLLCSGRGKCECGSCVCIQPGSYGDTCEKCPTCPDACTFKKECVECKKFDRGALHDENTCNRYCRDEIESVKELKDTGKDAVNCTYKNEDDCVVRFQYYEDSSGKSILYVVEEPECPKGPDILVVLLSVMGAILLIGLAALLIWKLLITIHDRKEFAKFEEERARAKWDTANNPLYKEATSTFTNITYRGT

Row | tumor-to-blood ratio of the 111In-labeled cyclic RGDfK-liposome, mice without a metastatic growth of human melanoma cells (111In-liposome without peptide: 1) [2] | uptake of the 111In-labeled cyclic RGDfK-liposome in tumor, mice without a metastatic growth of human melanoma cells (111In-liposome without peptide: 2.2) [2] | tumor-to-blood ratio of the 111In-labeled cyclic RGDfK-liposome, mice with a metastatic growth of human melanoma cells (111In-liposome without peptide: 1.3) [3] | uptake of the 111In-labeled cyclic RGDfK-liposome in tumor (jejunal lymph node), mice with a metastatic growth of human melanoma cells (111In-liposome without peptide: 2.9) [3] | Molecule | A375.S2 cell adhesion to fibronectin, collagen I, and collagen IV [1] | binding affinity for integrin αVβ3 (integrin αVβ3)
1 | – | – | – | – | N=C(N)NCCC[C@@H]1NC(=O)[C@H](CCCCN)NC(=O)[C@@H](Cc2ccccc2)NC(=O)[C@H](CC(=O)O)NC(=O)CNC1=O [cRGDfK] | markedly reduced | high binding affinity
2 | – | – | – | – | CC(C)[C@@H]1NC(=O)[C@@H](Cc2ccccc2)NC(=O)[C@H](CC(=O)O)NC(=O)CNC(=O)[C@H](CCCNC(=N)N)NC1=O [cRGDfV] | markedly reduced | high binding affinity
3 | 4.8 | 5.3 %ID/g | 5.6 | 6.2 %ID/g | cyclo(RGD[dF]K) (also: conjugated via NHS-PEG2000-DSPE, inserted into PEGylated liposome) [cyclic RGDfK-liposome] | – | –
